Source: patent US6271342A, “Sugar-modified cytostatics” (Bayer Aktiengesellschaft, priority 1995, dated 2001)
Where a name gives a salt, the structure may show the parent alone.

Test system: SW 480
Assay: Growth inhibition test (MTT) for cytotoxic properties
Assay type: cell-based, human
Settings: Table 1a, glycoconjugates of batracyline
Protocol: Growth Inhibition Test for Determination of the Cytotoxic Properties of Glycoconjugates of Batracyline and of Quinolone-a
The human colon cell lines SW 480 and HT 29 (ATCC no. CCL 228 and HBT-38) and the mouse melanoma cell line B 16 F 10 were cultured in Roux dishes in RPMI 1640 medium with addition of 10% FCS. The cultures were then trypsinized and taken up in RPMI plus 10% FCS to a cell count of 50,000 cells/ml. 100 μl of cell suspension/well were introduced into a 96 microwell plate and incubated for 1 day at 37° C. in a CO2 incubating cabinet. A further 100 μl of RPMI medium and 1 μl of dimethyl sulphoxide with the test substances were then added. The growth was checked after day 3 and day 6. 40 μl of MTT solution (3-(4,5-dimethylthiazol-2-yl)-2,5-diphenyltetrazoline bromide) with an initial concentration of 5 mg/ml of H2 O were added to each microwave. The plate was incubated for 5 hours in a CO2 incubating cabinet at 37° C. The medium was then sucked off and 100 μl of i-propanol/well were added. After shaking for 30 minutes with 100 μl of H2 O, the extinction was measured at 540 nm with a Titertek Multiskan MCC/340 (Flow).
The cytotoxic action of the glycoconjugates of batracyline described is shown in Table 1a as the IC50 value in each case for the SW 480 and HT 29 cell lines.

Compound | IC50 [µM]
C[C@@H]1O[C@H](Oc2ccc(NC(=S)NCCCC[C@H](N)C(=O)N[C@H](C)C(=O)Nc3ccc4c(c3)CN3C(=O)c5ccccc5C3=N4)cc2)[C@@H](O)C[C@@H]1O [Example 3.7, N-{N^ε -[O-(3-Deoxy-β-L-fucosyl)-4-hydroxy-phenylamino-thiocarbonyl]-lysyl-D -alanyl}-batracyline, trifluoroacetate] | 55
CO[C@H]1[C@@H](O)[C@H](O)[C@@H](Oc2ccc(NC(=S)NCCCC[C@H](N)C(=O)N[C@H](C)C(=O)Nc3ccc4c(c3)Cn3c-4nc4ccccc4c3=O)cc2)O[C@H]1C [Example 3.11, N-{N^ε -[O-(4-O-Methyl-β-L-fucosyl)-4-hydroxy-phenylamino-thiocarbonyl]-lysyl-D-alanyl}-batracyline, acetate] | 85
CNC(=O)COC1C(O)C(CO)OC(Oc2ccc(NC(=S)NCCCCC(N)C(=O)NC(C)C(=O)Nc3ccc4nc5n(c(=O)c4c3)Cc3ccccc3-5)cc2)C1O [Example 3.20, N-{N^ε -[O-(3-O-(N-Methyl-carbamoylmethyl)-β-D-galactopyranosyl)-4-hydroxy-phenylamino-thiocarbonyl]-lysyl-D-alanyl}-batracyline, trifluoroacetate] | 100
CC(=O)OCC1OC(Oc2ccc(NC(=S)NCCCCC(N)C(=O)NC(C)C(=O)Nc3ccc4nc5n(c(=O)c4c3)Cc3ccccc3-5)cc2)C(O)C(O)C1O [Example 3.24, N-{N^ε -[O-(6-O-Acetyl-β-D-galactopyranosyl)-4-hydroxy-phenylamino-thiocarbonyl]-lysyl-D-alanyl}-batracyline, trifluoroacetate] | 95
COC1C(Oc2ccc(NC(=S)NCCCCC(N)C(=O)NC(C)C(=O)Nc3ccc4nc5n(c(=O)c4c3)Cc3ccccc3-5)cc2)OC(CO)C(O)C1OC [Example 3.27, N-{N^ε -[O-(2,3-Di-O-methyl-α-D-mannopyranosyl)-4-hydroxy-phenylamino-thiocarbonyl]-lysyl-D-alanyl}-batracyline, trifluoroacetate] | 110
CC(NC(=O)C(CCCCNC(=S)Nc1ccc(OC2OC(CO)C(O)C(OCC(N)=O)C2O)cc1)NC(=S)Nc1ccc(OC2OC(CO)C(O)C(OCC(N)=O)C2O)cc1)C(=O)Nc1ccc2nc3n(c(=O)c2c1)Cc1ccccc1-3 [Example 6.82, N-{N^α,N^ε -Bis-[O-(3-O-carbamoylmethyl-β-D-galactopyranosyl)-4-hydroxy-phenylamino-thiocarbonyl]-lysyl-D-alanyl}-batracyline] | 125
CO[C@H]1[C@H](O)[C@@H](Oc2ccc(Nc3nc(NCCO)nc(NCCCC[C@H](N)C(=O)N[C@H](C)C(=O)Nc4ccc5c(=O)n6c(nc5c4)-c4ccccc4C6)n3)cc2)O[C@@H](C)[C@H]1O [Example 8.10, N-{N^ε -[4-Hydroxyethylamino-2-[O-(3-O-methyl-β-L-fucosyl)-4-hydroxy-phenylamino]-triazin-6-yl]-lysyl-D-alanyl}-batracyline, trifluoroacetate] | 70
CO[C@H]1[C@@H](O)[C@H](O)[C@@H](Oc2ccc(Nc3nc(NCCO)nc(NCCCC[C@H](N)C(=O)N[C@@H](C)C(=O)Nc4ccc5c(c4)CN4C(=O)c6ccccc6C4=N5)n3)cc2)O[C@H]1C [Example 8.12, N-{N^ε -[4-Hydroxyethylamino-2-[O-(4-O-methyl-β-L-fucosyl)-4-hydroxy-phenylamino]-triazin-6-yl]-lysyl-alanyl}-batracyline, trifluoroacetate] | 30
N-{N-[O-(β-L-Fucosyl)-4-hydroxy-phenylamino-thiocarbonyl]-glutamyl-D-a lanyl}-batracyline [Example 7.5] | 80
N-{N^α -[4-Hydroxyphenylamino-thiocarbonyl]-N^ε -[O-(4-O-methyl-β-L-fucosyl)-4-hydroxyphenylamino-thiocarbonyl]-lysyl -D-alanyl}-batracyline [Example 5.6] | > 250
N-{N^α,N^ε -Bis-[O-(3,4-O-dideoxy-β-D-galactopyranosyl)-4-hydroxy-phenylamino-th iocarbonyl]-lysyl-D-alanyl}-batracyline [Example 6.83] | 90
